Measurements: PMC12022103 (Scientific Reports, 2025)
≈ marks a conversion by molar mass, not a printed value. Non-standard residues stand in square brackets, D forms with d. Residues, ends and D or L forms follow the SMILES beside them. No end group written: not given here. AEEA = NCCOCCOCC(=O)O

Columns and labels:
A. baumannii ATCC 17978 [1] = assay: Minimum bactericidal concentration (MBC); format: cell-based; details: 5 µL from MIC wells plated on MH II agar, 37 °C overnight, no visible colonies, triplicate, highest number reported
Method: (§1) The panel of bacterial reference strains used in this work for assessment of synthetic peptide activity originated from the American Type Culture Collection (ATCC) and was obtained from the Diagnostic section at the Department of Microbiology, Oslo University Hospital. The strains used were as follows: E. coli ATCC 25922, K. pneumoniae ATCC 13883, A. baumannii ATCC 17978, S. aureus ATCC 29213, and E. faecalis ATCC 29212.
(§2) Bacterial strains were plated on cation-adjusted Mueller-Hinton (MH II) agar plates and incubated at 37 °C overnight. The day after single colonies were picked and resuspended in sterile-filtered saline (0.9%). The OD of each bacterial suspension was adjusted to McFarland standard 0.5 using a spectrophotometer (UV-1800, Shimadzu), and the suspension further diluted 1:100 in MH II broth, corresponding to 10^6 colony forming units (CFU) per mL. The inoculum suspension was used for MIC, MBC, time-kill and protease stability assessments as described below. To ensure correct inoculum sizes, 10 µL of the bacterial suspensions were diluted 2000-fold in sterile-filtered saline (0.9%) and 100 µL plated onto MH II agar plates. After overnight incubation at 37 °C, colonies were counted. If found to be outside the acceptable number (20–80 colonies per plate corresponding to ∼10^6 CFU/mL), results from further analyses were discarded.
(§3) In order to assess the minimum bactericidal concentration (MBC) of peptides, 5 µL from each well of the 96-well plate used for MIC analysis was plated onto MH II agar and incubated at 37 °C overnight. […] The experiments were performed in triplicate. Two-fold variations in MIC values were often observed between replicates.

E. faecalis ATCC 29212 [2] = assay: Minimum bactericidal concentration (MBC); format: cell-based; details: 5 µL from MIC wells plated on MH II agar, 37 °C overnight, no visible colonies, triplicate, highest number reported
Method: as §1, §2, §3

K. pneumoniae ATCC 13883 [3] = assay: Minimum bactericidal concentration (MBC); format: cell-based; details: 5 µL from MIC wells plated on MH II agar, 37 °C overnight, no visible colonies, triplicate, highest number reported
Method: as §1, §2, §3

S. aureus ATCC 29213 [4] = assay: Minimum bactericidal concentration (MBC); format: cell-based; details: 5 µL from MIC wells plated on MH II agar, 37 °C overnight, no visible colonies, triplicate, highest number reported
Method: as §1, §2, §3

E. coli ATCC 25922 [5] = assay: Minimum inhibitory concentration (MIC), broth dilution; format: cell-based, Escherichia coli; details: E. coli ATCC 25922; two-fold dilution in MH II broth, 5 × 10^5 CFU/mL, 18–24 h, 37 °C, OD600; triplicate, highest number reported; detection limit <0.5 and >128 µM
Method: as §1, §2
(§4) The peptides were serially diluted (two-fold) directly in 96-well plates (Greiner, MICROPLATE, 96 WELL, PP, U-BOTTOM, NATURAL, 650261) containing MH II broth, corresponding to concentrations in the range 256–0.5 µM. An equal volume of bacterial suspension was added to each well, resulting in a final inoculum of 5 × 10^5 CFU/mL and final peptide concentrations of 128–0.25 µM. The 96-well plates were incubated for 18–24 h at 37 °C, after which the OD of each well was measured at 600 nm in a plate reader (Victor Nivo, Perkin-Elmer). The minimum inhibitory concentration (MIC) was estimated as the lowest concentration of peptide that produced OD600 measurements similar to the control wells containing no bacteria. The experiments were performed in triplicate. Two-fold variations in MIC values were often observed between replicates.

E. coli ATCC 25922 [6] = assay: Minimum bactericidal concentration (MBC); format: cell-based, Escherichia coli; details: 5 µL from MIC wells plated on MH II agar, 37 °C overnight, no visible colonies, triplicate, highest number reported, detection limit <0.5 and >128 µM
Method: as §1, §2, §3

A. baumannii ATCC 17978 [7] = assay: Minimum inhibitory concentration (MIC), broth dilution; format: cell-based; details: MH II broth, 5 × 10^5 CFU/mL, 18–24 h, 37 °C, OD600, triplicate, highest number reported, detection limit <0.5 and >128 µM
Method: as §1, §2, §4

E. faecalis ATCC 29212 [8] = assay: as above; format: cell-based; details: E. faecalis ATCC 29212; MH II broth, 5 × 10^5 CFU/mL, 18–24 h, 37 °C, OD600; triplicate, highest number reported; detection limit <0.5 and >128 µM
Method: as §1, §2, §4

K. pneumoniae ATCC 13883 [9] = assay: as above; format: cell-based; details: K. pneumoniae ATCC 13883; MH II broth, 5 × 10^5 CFU/mL, 18–24 h, 37 °C, OD600; triplicate, highest number reported; detection limit <0.5 and >128 µM
Method: as §1, §2, §4

S. aureus ATCC 29213 [10] = assay: as above; format: cell-based; details: S. aureus ATCC 29213; MH II broth, 5 × 10^5 CFU/mL, 18–24 h, 37 °C, OD600; triplicate, highest number reported; detection limit <0.5 and >128 µM
Method: as §1, §2, §4

P. aeruginosa [11] = assay: as above; format: cell-based; details: MH II broth, 5 × 10^5 CFU/mL, 18–24 h, 37 °C, OD600; triplicate, highest number reported; detection limit <0.5 and >128 µM
P. aeruginosa [12] = assay: Minimum bactericidal concentration (MBC); format: cell-based; details: 5 µL from MIC wells plated on MH II agar, 37 °C overnight, no visible colonies; triplicate, highest number reported

Compound	MBC, A. baumannii (A. baumannii ATCC 17978 [1]) [µM]	MBC, E. faecalis (E. faecalis ATCC 29212 [2]) [µM]	MBC, K. pneumoniae (K. pneumoniae ATCC 13883 [3]) [µM]	MBC, S. aureus (S. aureus ATCC 29213 [4]) [µM]	MIC, E. coli (E. coli ATCC 25922 [5]) [µM]	MBC, E. coli (E. coli ATCC 25922 [6]) [µM]	MIC, A. baumannii (A. baumannii ATCC 17978 [7]) [µM]	MIC, E. faecalis (E. faecalis ATCC 29212 [8]) [µM]	MIC, K. pneumoniae (K. pneumoniae ATCC 13883 [9]) [µM]	MIC, S. aureus (S. aureus ATCC 29213 [10]) [µM]	MIC, P. aeruginosa (P. aeruginosa [11]) [µM]	MBC, P. aeruginosa (P. aeruginosa [12]) [µM]
CC[C@H](C)[C@H](NC(=O)[C@H](CC(C)C)NC(=O)[C@H](CCC(N)=O)NC(=O)[C@H](CC(C)C)NC(=O)[C@@H](NC(=O)[C@H](C)NC(=O)COCCOCCNC(=O)[C@H](CCCCN)NC(=O)[C@H](CCCCN)NC(=O)[C@H](CCCCN)NC(=O)[C@H](CCCCN)NC(=O)[C@H](CCCCN)NC(=O)[C@@H](N)C(C)C)C(C)C)C(=O)N[C@@H](CC(C)C)C(=O)N[C@@H](CCCCN)C(=O)N[C@@H](Cc1ccccc1)C(=O)N[C@@H](CC(C)C)C(N)=O [3c-N10] (H-VKKKKK[AEEA]AVLQLILKFL-NH2)	16 (≈ 32.7 µg/mL)	16 (≈ 32.7 µg/mL)	16 (≈ 32.7 µg/mL)	32 (≈ 65.3 µg/mL)	16 (≈ 32.7 µg/mL)	16 (≈ 32.7 µg/mL)	16 (≈ 32.7 µg/mL)	16 (≈ 32.7 µg/mL)	16 (≈ 32.7 µg/mL)	32 (≈ 65.3 µg/mL)	64 (≈ 131 µg/mL)	32 (≈ 65.3 µg/mL)
CC[C@H](C)[C@H](NC(=O)[C@H](CC(C)C)NC(=O)[C@H](CCC(N)=O)NC(=O)[C@H](CC(C)C)NC(=O)[C@@H](NC(=O)[C@H](C)NC(=O)[C@H](CCCCN)NC(=O)[C@H](CCCCN)NC(=O)[C@H](CCCCN)NC(=O)COCCOCCNC(=O)[C@H](CCCCN)NC(=O)[C@H](CCCCN)NC(=O)[C@@H](N)C(C)C)C(C)C)C(=O)N[C@@H](CC(C)C)C(=O)N[C@@H](CCCCN)C(=O)N[C@@H](Cc1ccccc1)C(=O)N[C@@H](CC(C)C)C(N)=O [3d-N10] (H-VKK[AEEA]KKKAVLQLILKFL-NH2)	16 (≈ 32.7 µg/mL)	32 (≈ 65.3 µg/mL)	32 (≈ 65.3 µg/mL)	32 (≈ 65.3 µg/mL)	16 (≈ 32.7 µg/mL)	16 (≈ 32.7 µg/mL)	16 (≈ 32.7 µg/mL)	32 (≈ 65.3 µg/mL)	32 (≈ 65.3 µg/mL)	32 (≈ 65.3 µg/mL)	64 (≈ 131 µg/mL)	64 (≈ 131 µg/mL)
CC[C@H](C)[C@H](NC(=O)[C@H](CC(C)C)NC(=O)[C@H](CCC(N)=O)NC(=O)[C@H](CC(C)C)NC(=O)[C@@H](NC(=O)[C@H](C)NC(=O)[C@H](CCCCN)NC(=O)[C@H](CCCCN)NC(=O)[C@H](CCCCN)NC(=O)[C@H](CCCCN)NC(=O)[C@H](CCCCN)NC(=O)[C@@H](N)C(C)C)C(C)C)C(=O)NCCOCCOCC(=O)N[C@@H](CC(C)C)C(=O)N[C@@H](CCCCN)C(=O)N[C@@H](Cc1ccccc1)C(=O)N[C@@H](CC(C)C)C(N)=O [3e-N10] (H-VKKKKKAVLQLI[AEEA]LKFL-NH2)	64 (≈ 131 µg/mL)	> 128	128 (≈ 261 µg/mL)	> 128	128 (≈ 261 µg/mL)	128 (≈ 261 µg/mL)	32 (≈ 65.3 µg/mL)	> 128	128 (≈ 261 µg/mL)	> 128	32 (≈ 65.3 µg/mL)	> 128
KKKKAVLQLILLFL-NH2 [2a-N12]	> 128	> 128	> 128	> 128	> 128	> 128	> 128	> 128	> 128	> 128	> 128	> 128
KKKKFVLKLILKLL-NH2 [2e-N12]	> 128	> 128	> 128	> 128	> 128	> 128	> 128	> 128	> 128	> 128	> 128	> 128
